System: HEK293T cells
Assay: Polysome fractionation and real-time PCR of specific genes
Format: cell-based, human
Details: 3 h
Method: FIGS. 5A-D: 5′UTR length-dependent translational control by the eIF1-eIF4G1. […] The asterisks denote a statistically significant difference. **p<0.01, ****p<0.0001. (5B) A scheme of the firefly reporter genes that are driven by long (354 nt) and short (111 nt) 5′ UTR length, is shown on the top. HEK293T cells were transfected with these reporter genes. After 4 h, transfected cells were treated with DMSO, i14G1-10 (5 μM), or i14G1-12 (5 μM) for 16 h and analyzed for firefly luciferase activities. The graph presents the normalized luminescence activity of the long 5′UTR and the short 5′UTR reporters in the indicated treatments. The data are shown as mean±SEM, n=6. The asterisks denote statistically significant difference compared to DMSO, according to Student's t-tests (one-tailed, paired). *p<0.05; **p<0.01. (5C-D) HEK293T cells were treated with DMSO, i14G1-10, and i14G1-12 for 3 h, lysed, and subjected to sucrose gradient sedimentation and fractionation. Fractions were pooled according to polysome profile as free (grey), light (blue), and heavy (yellow) polysomal fractions. cDNA was prepared from each fraction pool and real-time PCR was performed for the indicated TISU genes (5C) or histone genes (5D). The data are shown as mean±SEM, n=3. The asterisks denote statistically significant difference compared to DMSO, according to Student's t-tests (one-tailed, paired), *p<0.05; **p<0.01.
FIGS. 7A-E: (7A) Ribo-seq and TI-seq read tracks of representative stress response-associated mRNAs (DDIT3 and GADD34) in DMSO (black), i14G1-10 (red), and i14G1-12 (green) samples. The red triangle represents 5′UTR TIS codons and the green denotes annotated TIS. Black arrows show the translation direction. […] The graphs in the lower panel are the quantification of ATF4's uORF1′, uORF1, uORF2, and main-ORF reads of the Ribo-seq data. The asterisks denote statistically significant difference compared to DMSO, according to Student's t-tests (one-tailed, paired). **p<0.01, ***p<0.001, ****p<0.0001. (7C) HEK293T cells were treated with DMSO, i14G1-10, and i14G1-12 for 3 h, lysed and subjected to sucrose gradient sedimentation and fractionation. Fractions of the free (grey), light (blue), and heavy (yellow) were pooled. cDNA was prepared from each fraction pool and real-time PCR was performed for the indicated ISR genes. The data are shown as mean±SEM, n=3. The asterisks denote statistically significant difference compared to DMSO, according to Student's t-tests (one-tailed, paired). *p<0.05; **p<0.01. (7D) HEK293T cells were treated with DMSO, i14G1-10, and i14G1-12 for 3 h. The respective cell lysates were subjected to western blot to check the protein levels of ATF3 and ATF4 (left). The graph represents the relative chemiluminescence signal intensity (mean±SEM) for ATF4 and AT3 normalized to GAPDH protein levels of three biological replicates. The asterisks denote statistically significant difference compared to DMSO, according to Student's t-tests (one-tailed, paired), *p<0.05. (7E) Control MEFs and eIF2α S52A mutant MEFs were treated with DMSO (vehicle control), and sub-cytotoxic concentrations of i14G1-10 (30 μM) and i14G1-12 (15 μM) for 3h. Cell lysates were then subjected to sucrose gradient sedimentation to obtain polysome profiles.
Polysome profile and real-time PCR. HEK293T cells were cultured in 10 cm plate up to 80% confluence, followed by DMSO, i14G1-10 (20 μM), and i14G1-12 (10 μM) treatment. After 3 h, the cells were incubated with 100 μg/ml cycloheximide for 5 minutes, washed with cold polysome buffer (20 mM Tris pH8, 140 mM KCl, 5 mM MgCl2, and 100 μg/ml cycloheximide). Cells were collected in 500-μl polysome buffer supplemented with 0.5% Triton, 0.5% DOC, 1.5 mM DTT, 150 units RNase inhibitor, and 5-μl protease inhibitor cocktail. Lysed samples were centrifuged at 12000 RPM, 5 minutes at 4° C. The cleared lysate was loaded onto sucrose density gradient (10-50%) and centrifuged at 38000 RPM for 105 minutes at 4° C. […]

SMILES | translation of ACTB mRNA (control) in polysome fractions | translation of eight histone genes in polysome fractions | translation of seven TISU genes in polysome fractions | translation of stress-response genes in Free, Light and Heavy polysome fractions
O=C(/C=C/Sc1ccc(C(F)(F)F)cn1)c1ccccc1 [i14G1-10] | decreased translation of the ACTB mRNA | general trend of upregulation | either unaffected or slightly upregulated | all found to be upregulated
Cn1ccnc1S/C(=C/C=C(C#N)C#N)c1ccc(Cl)cc1 [i14G1-12] | decreased translation of the ACTB mRNA | general trend of upregulation | either unaffected or slightly upregulated | all found to be upregulated

From patent US20250090510A1, “eIF4G1-eIF1 INHIBITORS AND USE THEREOF” (YEDA RESEARCH AND DEVELOPMENT CO. LTD., priority 2022, published 2025)
